Experimental data published in patent US11213597B2, “Kinin-based theranostic probes for solid cancers and uses thereof” (SOCIETE DE COMMERCIALISATION DES PRODUITS DE LA RECHERCHE …, priority 2015, dated 2022).
Where a SMILES comes first, the peptide text is derived from it. [ ]: non-standard residue; d: D form. The star is where a group is joined. ξ: configuration not given here. NOTA = O=C(O)CN1CCN(CC(=O)O)CCN(CC(=O)*)CC1; Oic = O=C(O)[C@@H]1C[C@@H]2CCCC[C@@H]2N1; d2Nal = N[C@H](Cc1ccc2ccccc2c1)C(=O)O; αMeF = C[C@](N)(Cc1ccccc1)C(=O)O; ξαMeF = CC(N)(Cc1ccccc1)C(=O)O; Orn = NCCC[C@H](N)C(=O)O; βAla = NCCC(=O)O

What was measured:
human B1R = target: T1, human B1R (Homo sapiens, UniProt P46663); experiment: human bioassay using isolated human umbilical veins, B1R; format: cell-based; details: versus the βAla-linked compound
T1 construct: It particularly expresses both kinin B1R and B2R at physiological densities; from tissue; host or cells: isolated human umbilical vein
T1 sequence (P46663 1-353): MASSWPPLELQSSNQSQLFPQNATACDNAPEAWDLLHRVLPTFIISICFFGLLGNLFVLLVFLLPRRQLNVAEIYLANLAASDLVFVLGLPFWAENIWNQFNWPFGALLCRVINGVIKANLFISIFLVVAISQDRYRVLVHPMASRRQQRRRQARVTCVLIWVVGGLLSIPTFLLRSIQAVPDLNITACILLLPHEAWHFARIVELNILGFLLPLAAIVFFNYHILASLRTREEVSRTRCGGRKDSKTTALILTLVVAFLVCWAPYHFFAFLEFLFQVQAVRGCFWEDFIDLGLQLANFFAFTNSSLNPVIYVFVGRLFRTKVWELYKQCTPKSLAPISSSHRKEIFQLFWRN
From the text: The apparent affinity constants (or potency) of kinin agonist and antagonist analogues for human B1R were estimated by in vitro human bioassay using isolated human umbilical veins (Gobeil et al., 1996, supra; Côté et al., 2009, supra). […] It particularly expresses both kinin B1R and B2R at physiological densities. Apparent affinities of peptides were defined in terms of EC50 (pD2) values for agonists and IC50 values for antagonists.

F98 GBM [1] = experiment: ex vivo biodistribution in F98 GBM-bearing rats; design: species or system rat
Protocol: Ex vivo biodistribution studies were performed by injecting 74 MBq (2 mCi/rat; 100 μL of ^64Cu-NOTA-βAla-Orn^1-Arg^2-Oic^3-Pro^4-Gly^5-(αMe)Phe^6-Ser^7-DβNal^8-Ile^9-OH (SEQ ID NO: 6) to isoflurane-anesthetized normal (non-implanted) or F98 bearing rats via the caudal vein. After 1 and 20 h post-injection, the animals were euthanized by CO2 inhalation. Organs of interest were further collected, weighed, and measured in a gamma-counter (Cobra II auto-gamma counter, Packard, Minn.). The results were expressed as percentage of the injected dose per gram of tissue (% ID/g). Specificity of brain tumor uptake of B1R radiotracers was determined by pre-administration of 1 mg/kg of R954 peptide (5 min prior the injection of the radiolabelled peptide) and using sham-operated contralaterals. Animals bearing B1R target knockdowns were also employed to further support specificity of brain tumor uptake. Experiments were realized with a minimum of 3 rats per group.

F98 GBM [2] = experiment: small animal PET imaging, Fischer/F98 malignant glioma model; format: in vivo, rat; details: intravenous, F98 GBM-bearing rats
Protocol: The F98 GBM cell line (#CRL-2397) was purchased from American Type Culture Collection (ATCC). Cells were cultured as monolayers in Dulbecco's modified Eagle medium (DMEM) supplemented with 10% fetal bovine serum (FBS) and 1% penicillin-streptomycin mixture at 37° C. in a humidified 5% CO2/95% air incubator. The procedure of F98 glioma cell implantation was similar to that used in our previous studies (Côté et al., 2010, Neuropeptides, 44:177-185). […] All tumor transplantations were successful as determined by histology and/or MRI.
PET scans were performed using a LabPET8 (Gamma Medica Inc.) small animal scanner with an axial field of view of 8 cm. […] PET scans were assessed 1 h and 20 h post-injections. […] Regions of interest were traced for tumor, normal brain, heart, liver, kidney, and muscle, and the activity in each organ was measured and reported to the injected dose for percentages calculation. […] In vivo testing of the novel kinin PET radiotracers was also assessed in a model of tumor metastasis induced by the intracardiac injection of 4T1/luc (bioluminescent) mouse breast cancer cells under ultrasound guidance.

[3] = tested on: brain tumor cells and other types of cancer cells (e.g., breast and prostate); experiment: cellular and nuclear uptake of Cu (ICP-MS / radiometric assays); format: cell-based
Protocol: Cellular uptake profiles of non-radioactive Cu-acetate and Cu-labeled peptides in B1R expressing rat F98 GBM cells were evaluated by ICP-MS analysis. Brain cancer cells were allowed to grow to confluence on a 10-cm dish. Cells were then incubated with Cu-acetate or Cu-labeled peptides (500 nM) in FBS free-DMEM at 37° C. for 15 min or 1, 4, or 20 h, respectively. For determination of nonspecific internalization, one set of dishes was incubated with the potent B1R antagonist R-954 (1 μM) at 37° C. for 10 min to block B1R prior to incubation with Cu-labeled peptides. At each time point, media was collected, and cells were acid-washed once (50 mM acetic acid/250 mM NaCl pH 2.5), to remove surface-bound fractions, and then washed twice with Phosphate-buffered saline (PBS, pH 7.4). Thereafter, cells were trypsinized, collected by centrifugation and gently washed with Hank's buffered salt solution (HBSS). Cells were solubilized in 1/1 nitric acid/30% H2O2 solution, and the amount of Cu was determined by ICP-MS. […]
Irradiating DNA is an effective way to injure and eventually kill cells. […] Pelleted cell-free nuclei were resuspended in 0.5 ml of hypotonic buffer, counted and finally solubilized in 1/1 nitric acid/30% H2O2 solution. […] Quantification of Cu content in the nuclear fractions was done by ICP-MS.

F98 GBM [4] = experiment: peptide receptor radionuclide therapy (PRRT), survival of F98 GBM-bearing rats; format: in vivo; details: single intravenous treatment 7.5 mCi/rat, day 10 post-inoculation
[5] = tested on: human solid tumors (e.g., brain and prostate) expressing naturally-occurring native B1R; experiment: PET imaging of solid tumors expressing native B1R (LN-CaP tumor-bearing nude mouse, F98); format: in vivo
Protocol: FIGS. 4A-C illustrate in vitro cell uptake and anticancer activity of ^64Cu-NOTA-βAla-Orn^1-Arg^2-Oic^3-Pro^4-Gly^5-(αMe)Phe^6-Ser^7-DβNal^8-Ile^9-OH; ^64Cu-NOTA-B1RA) (SEQ ID NO: 6) in human prostate cancer cells (PC3 and LN-CaP). Cell uptake of ^64Cu-Nota-B1RA (in the presence or not of competitor R954) in PC3 cells measured at 20 h post-treatment by radiometric assays (A). Dose-dependent antiproliferative effects of ^64Cu-acetate and ^64Cu/Nota-B1RA on PC3 cells (B) and LN-CaP cells (C), assessed by clonogenic assays. FIG. 4 D illustrates the molecular imaging of prostate cancer with ^64Cu/Nota-B1RA. PET images of LN-CaP tumor-bearing nude mouse obtained after injection of 64Cu/Nota-B1RA (9 MBq) at 0.5 h post-injection (p.i.). […] FIG. 4F confirms the immunohistochemical (IHC) overexpression of B1R in tumoral tissues of LNCaP-bearing mice (blackiste dark-color).
FIGS. 5A-C illustrate in vitro cellular/nuclear uptake and anticancer activity of ^64Cu-NOTA-βAla-Orn^1-Arg^2-Oic^3-Pro^4-Gly^5-(αMe)Phe^6-Ser^7-DβNal^8-Ile^9-OH (Cu/Nota-B1RA) (SEQ ID NO: 6) in F98 GBM cells. Cell uptake and nuclear localization of non-radioactive, free Cu and Cu/Nota-B1RA in F98 glioma cells measured at 20 h post-treatment by ICP-MS (A). Dose-dependent antiproliferative effects of ^64Cu-acetate, ^64Cu/Nota-B1RA on F98 wildtype (B) or shRNA-B1R knockdown F98 cells (C) using clonogenic assays. […]

4T1/luc metastases = experiment: PET and bioluminescence imaging, 4T1/luc mouse mammary tumor metastasis model; format: in vivo; details: 4T1/luc mouse model
Protocol: PET scans were performed using a LabPET8 (Gamma Medica Inc.) small animal scanner with an axial field of view of 8 cm. F98 GBM bearing rats were injected with 74 MBq (2 mCi; 100 μL) of novel ^64Cu radiolabeled B1R peptides (agonist or antagonist) with via the caudal vein under isoflurane anesthesia. PET scans were assessed 1 h and 20 h post-injections. […] The images were reconstructed by a three dimensional MLEM algorithm implementing an analytically derived system matrix (Selivanov et al., 2000, Nuclear Science, IEEE Transactions on, 47: 1168-1175). Regions of interest were traced for tumor, normal brain, heart, liver, kidney, and muscle, and the activity in each organ was measured and reported to the injected dose for percentages calculation. […] In vivo testing of the novel kinin PET radiotracers was also assessed in a model of tumor metastasis induced by the intracardiac injection of 4T1/luc (bioluminescent) mouse breast cancer cells under ultrasound guidance.

[6] = rat
Protocol: For in vivo stability studies in normal healthy rats and mice, peptide was reconstituted in PBS and 20-30 MBq (500-800 μCi; 100 μL) were injected through the tail vein to isoflurane anesthetized animals. At different times post-injection, blood and urine were collected, centrifuged and followed by a protein precipitation with acetonitrile. Samples were analyzed by UPLC using a C-18 column and a radio-detector. Analysis and retention times were compared to the original radiolabeled peptide to monitor peptide cleavage.

cancer cells = experiment: cytotoxicity of B1R radionuclide therapy by clonogenic assays; format: cell-based; details: non-radioactive surrogate up to 10 μM
Protocol: Cytotoxicity of B1R radionuclide therapy was assessed in cancer cells by clonogenic assays. […] Then, media were removed and colonies fixed/stained with 0.5% methylene blue in 50% ethanol, rinsed with tap water and air dried. Colony counting was performed manually or automatically using the Image Pro Plus 5.1.

With `CC[C@H](C)[C@H](NC(=O)[C@@H](Cc1ccc2ccccc2c1)NC(=O)[C@H](CO)NC(=O)C(C)(Cc1ccccc1)NC(=O)CNC(=O)[C@@H]1CCCN1C(=O)[C@@H]1C[C@@H]2CCCC[C@@H]2N1C(=O)[C@H](CCCNC(=N)N)NC(=O)[C@H](CCCN)NC(=O)CN1CCN(CC(=O)O)CCN(CC(=O)O)CC1)C(=O)O` (stereo partly shown) [Cu-NOTA-Orn^1-Arg^2-Oic^3-Pro^4-Gly^5-(αMe)Phe^6-Ser^7-DβNal^8-Ile^9-OH] ({NOTA}-[Orn]R[Oic]PG[ξαMeF]S[d2Nal]I-OH; N-terminus assumed) the “decrease in affinity to hB1R in absence of linker” value (human B1R) was 10 fold.
For “^64Cu-NOTA-βAla-Orn^1-Arg^2-Oic^3-Pro^4-Gly^5-(αMe)Phe^6-Ser^7-DβNal^8-Ile^9-OH ({NOTA}-[βAla][Orn]R[Oic]PG[αMeF]S[d2Nal]I-OH; also: 64Cu complexed by NOTA)”, the “brain tumor uptake, ex vivo biodistribution” value (F98 GBM [1]) was “significant amount of brain tumor uptake”, the “detection of brain tumors by μPET” value (F98 GBM [2]) was “properly detected relatively small brain tumors” and the cellular localization [3] was “localize both in cytoplasmic and nuclear compartment”. The “survival with PRRT” value (F98 GBM [4]) was “tendency of prolonging survival”, the “non-invasive detection of solid tumors” value [5] was “capacity to identify or detect non-invasively and rapidly human solid tumors” and the “PET signal localization versus bioluminescent signals” value (4T1/luc metastases) was “colocalized with bioluminescent signals from (bone) metastases”. For the same compound, the in vivo stability [6] was “no degradation sign”, the “elimination (pharmacokinetics)” value ([6]; in vivo) was “largely eliminated by the kidneys in urine as intact form” and the “anticancer activity / therapeutic efficacy” value (cancer cells) was “enhanced anticancer activity”.
For `CC(=O)[O-].CC(=O)[O-].[64Cu+2]` [^64Cu-acetate, reference compound], the “anticancer activity / therapeutic efficacy” value (cancer cells) was “not seen”.
With `CC[C@H](C)[C@H](NC(=O)[C@@H](Cc1ccc2ccccc2c1)NC(=O)[C@H](CO)NC(=O)C(C)(Cc1ccccc1)NC(=O)CNC(=O)[C@@H]1CCCN1C(=O)[C@@H]1C[C@@H]2CCCC[C@@H]2N1C(=O)[C@H](CCCNC(=N)N)NC(=O)[C@H](CCCN)NC(=O)CCNC(=O)CN1CCN(CC(=O)O)CCN(CC(=O)O)CC1)C(=O)O` (stereo partly shown) [Cu-NOTA-βAla-Orn^1-Arg^2-Oic^3-Pro^4-Gly^5-(αMe)Phe^6-Ser^7-DβNal^8-Ile^9-OH] ({NOTA-βAla}-[Orn]R[Oic]PG[ξαMeF]S[d2Nal]I-OH; N-terminus assumed) the “anticancer activity / therapeutic efficacy” value (cancer cells) was “not seen”.
For “^64Cu-NOTA-βAla-DLys^1-Arg^2-Pro^3-Pro^4-Gly^5-Phe^6-Ser^7-Pro^8-DPhe^9-OH (AKRPPGFSPF; 64Cu-NOTA-betaAla N-terminal; D-Lys1, D-Phe9; SITE (1)...(1) beta-alanine; SITE (2)...(2) D-lysine; SITE (10)...(10) D-phenylalanine)”, the “detection of brain tumors by μPET” value (F98 GBM [2]) was “properly detected relatively small brain tumors”.
